Target: T1, human OX2R (Homo sapiens, UniProt O43614)
T1 construct: host or cells: CHO-K1 (Chinese Hamster Ovary K1)
T1 sequence (O43614 1-444): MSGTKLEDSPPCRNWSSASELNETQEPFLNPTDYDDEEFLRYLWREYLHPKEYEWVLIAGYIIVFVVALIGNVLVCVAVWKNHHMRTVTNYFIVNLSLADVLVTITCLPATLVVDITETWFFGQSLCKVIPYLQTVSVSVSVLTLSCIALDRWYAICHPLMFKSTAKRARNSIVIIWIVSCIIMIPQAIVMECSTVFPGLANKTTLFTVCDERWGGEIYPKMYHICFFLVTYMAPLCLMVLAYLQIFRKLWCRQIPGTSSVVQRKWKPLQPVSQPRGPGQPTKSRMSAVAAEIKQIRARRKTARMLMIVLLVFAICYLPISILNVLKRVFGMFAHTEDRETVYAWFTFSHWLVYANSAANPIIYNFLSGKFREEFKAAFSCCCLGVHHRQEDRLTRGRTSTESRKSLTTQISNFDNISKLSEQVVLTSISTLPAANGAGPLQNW
Experiment: Evaluation of OX2R agonist activity (intracellular calcium, CHO-K1 cells with forced expression of human OX2R)
Format: cell-based
Details: CHO-K1 cells expressing human OX2R; 100% = 5 µM of the reference compound; read-out: hOX2R EC50
Procedure: Evaluation of OX2R agonist activity
Chinese Hamster Ovary K1 (CHO-K1) cells (GenScript) with forced expression of human OX2R were seeded onto a 384 well microplate (Corning) at 7500 cells/well and cultured for 24 hours. 20 µL of the loading buffer (25 mM HEPES containing 1.25 mM of Probenecid and 2.5 µg/mL of Fluo 4-AM at final concentration, Hank's balanced salt solution, 0.06% Pluronic F-127, Quenching buffer) in the Calcium Kit II (DOJINDO LABORATORIES) was added, and the microplate was allowed to stand for 30 minutes. A reference compound (Example435 of WO 2019/027058, N-[(2S,3S)-2-[[3-(3,5-difluorophenyl)-2-fluoro-phenyl]methyl]-1-(2-hydroxy-2-methylpropanoyl)pyrrolidin-3-yl]ethanesulfonamide) or the test compound was added in 10 µL, and changes in intracellular calcium ion concentration were measured using FDSS7000EX (Hamamatsu Photonics K.K.) as a fluorescence intensity ratio obtained upon dual wavelength excitation at 480 nm and 540 nm. Note that the reference compound or test compound was dissolved in DMSO (final concentration of DMSO was 0.5%) and diluted with an assay buffer (20 mM HEPES, Hank's balanced salt solution, 0.1% BSA). The difference between the maximum and minimum fluorescence values between 5 and 7 seconds after the addition of the test compound or reference compound was used as the indicator. The value of wells to which the assay buffer containing no test compound was added was defined as 0%, and the value of wells to which 5 µM of the reference compound was added was defined as 100%. The 50% effective concentration (EC50 value) was determined from the values obtained when various concentrations of the test compound were added. […]

Structure (SMILES)	EC50 [nM]
COCC(=O)N1C2CC(C2)[C@H](NS(C)(=O)=O)[C@@H]1Cc1cccc(-c2cc(F)cc(F)c2)c1F [Example 28, N-{(3S,4S)-2-(Methoxyacetyl)-3-[(2,3',5'-trifluoro[biphenyl]-3-yl)methyl]-2-azabicyclo[3.1.1]heptan-4-yl}methanesulfonamide]	247
CS(=O)(=O)N[C@H]1C2CC(C2)N(C(=O)[C@H]2C[C@@H]2F)[C@H]1Cc1cccc(-c2cc(F)cc(F)c2)c1F [Example 29, N-{(3S,4S)-2-{[(1R,2S)-2-Fluorocyclopropyl]carbonyl}-3-[(2,3',5'-trifluoro[biphenyl]-3-yl)methyl]-2-azabicyclo[3.1.1]heptan-4-yl}methanesulfonamide]	253
CS(=O)(=O)N[C@H]1C2CC(C2)N(C(=O)[C@@H]2C[C@H]2F)[C@H]1Cc1cccc(-c2cc(F)cc(F)c2)c1F [Example 30, N-{(3S,4S)-2-{[(1S,2R)-2-Fluorocyclopropyl]carbonyl}-3-[(2,3',5'-trifluoro[biphenyl]-3-yl)methyl]-2-azabicyclo[3.1.1]heptan-4-yl}methanesulfonamide]	148
C[C@@H](O)C(=O)N1C2CC(C2)[C@H](NS(C)(=O)=O)[C@@H]1Cc1cccc(-c2cc(F)cc(C#N)c2)c1F [Example 31, N-{(3S,4S)-3-[(3'-Cyano-2,5'-difluoro[biphenyl]-3-yl)methyl]-2-[(2R)-2-hydroxypropanoyl]-2-azabicyclo[3.1.1]heptan-4-yl}methanesulfonamide]	189
CS(=O)(=O)N[C@H]1C2CC(C2)N(C(=O)C2(C#N)CC2)[C@H]1Cc1cccc(-c2cc(F)cc(F)c2)c1F [Example 33, N-{(3S,4S)-2-[(1-Cyanocyclopropyl)carbonyl]-3-[(2,3',5'-trifluoro[biphenyl]-3-yl)methyl]-2-azabicyclo[3.1.1]heptan-4-yl}methanesulfonamide]	326
CS(=O)(=O)N[C@H]1C2CC(C2)N(C(=O)CO)[C@H]1Cc1cccc(-c2cc(F)cc(F)c2)c1F [Example 34, N-{(3S,4S)-2-(Hydroxyacetyl)-3-[(2,3',5'-trifluoro[biphenyl]-3-yl)methyl]-2-azabicyclo[3.1.1]heptan-4-yl}methanesulfonamide]	289
CC(C)NC(=O)N1C2CC(C2)[C@H](NS(C)(=O)=O)[C@@H]1Cc1cccc(-c2cc(F)cc(F)c2)c1F [Example 35, (3S,4S)-4-[(Methylsulfonyl)amino]-N-(propan-2-yl)-3-[(2,3',5'-trifluoro[biphenyl]-3-yl)methyl]-2-azabicyclo[3.1.1]heptane-2-carboxamide]	75
CCNC(=O)N1C2CC(C2)[C@H](NS(C)(=O)=O)[C@@H]1Cc1cccc(-c2ccccc2)c1F [Example 37, (3S,4S)-N-Ethyl-3-[(2-fluoro[biphenyl]-3-yl)methyl]-4-[(methylsulfonyl)amino]-2-azabicyclo[3.1.1]heptane-2-carboxamide]	18
C[C@@H](O)C(=O)N1C2CC(C2)[C@H](NS(C)(=O)=O)[C@@H]1Cc1cccc(-c2cccc3c2OC(F)(F)O3)c1F [Example 38, N-{(3S,4S)-3-[3-(2,2-Difluoro-1,3-benzodioxol-4-yl)-2-fluorobenzyl]-2-[(2R)-2-hydroxypropanoyl]-2-azabicyclo[3.1.1]heptan-4-yl}methanesulfonamide]	68
CS(=O)(=O)N[C@H]1C2CC(C2)N(C(=O)NCC2CC2)[C@H]1Cc1cccc(-c2cc(F)cc(F)c2)c1F [Example 39, (3S,4S)-N-(Cyclopropylmethyl)-4-[(methylsulfonyl)amino]-3-[(2,3',5'-trifluoro[biphenyl]-3-yl)methyl]-2-azabicyclo[3.1.1]heptane-2-carboxamide]	94
C[C@@H](O)C(=O)N1C2CC(C2)[C@H](NS(C)(=O)=O)[C@@H]1Cc1cccc(-c2cccc(F)c2)c1F [Example 40, N-{(3S,4S)-3-[(2,3'-Difluoro[biphenyl]-3-yl)methyl]-2-[(2R)-2-hydroxypropanoyl]-2-azabicyclo[3.1.1]heptan-4-yl}methanesulfonamide]	49
C[C@@H](O)C(=O)N1C2CC(C2)[C@H](NS(C)(=O)=O)[C@@H]1Cc1cccc(-c2cccc(C3CC3)c2)c1F [Example 41, N-{(3S,4S)-3-[(3'-Cyclopropyl-2-fluoro[biphenyl]-3-yl)methyl]-2-[(2R)-2-hydroxypropanoyl]-2-azabicyclo[3.1.1]heptan-4-yl}methanesulfonamide]	31
C[C@@H](O)C(=O)N1C2CC(C2)[C@H](NS(C)(=O)=O)[C@@H]1Cc1cccc(-c2cccc(OC(F)(F)F)c2)c1F [Example 42, N-{(3S,4S)-3-{[2-Fluoro-3'-(trifluoromethoxy)[biphenyl]-3-yl]methyl}-2-[(2R)-2-hydroxypropanoyl]-2-azabicyclo[3.1.1]heptan-4-yl}methanesulfonamide]	28
C[C@@H](O)C(=O)N1C2CC(C2)[C@H](NS(C)(=O)=O)[C@@H]1Cc1cccc(-c2cccc(C3CC3)n2)c1F [Example 43, N-{(3S,4S)-3-[3-(6-Cyclopropylpyridin-2-yl)-2-fluorobenzyl]-2-[(2R)-2-hydroxypropanoyl]-2-azabicyclo[3.1.1]heptan-4-yl}methanesulfonamide]	49
C[C@@H](O)C(=O)N1C2CC(C2)[C@H](NS(=O)(=O)C2CC2)[C@@H]1Cc1cccc(-c2ccccc2)c1F [Example 44, N-{(3S,4S)-3-[(2-Fluoro[biphenyl]-3-yl)methyl]-2-[(2R)-2-hydroxypropanoyl]-2-azabicyclo[3.1.1]heptan-4-yl}cyclopropanesulfonamide]	22
O=C([C@H]1C[C@H]1F)N1C2CC(C2)[C@H](NS(=O)(=O)C2CC2)[C@@H]1Cc1cccc(-c2ccccc2)c1F [Example 45, N-[(3S,4S)-3-[(2-Fluoro[biphenyl]-3-yl)methyl]-2-{[(1R,2R)-2-fluorocyclopropyl]carbonyl}-2-azabicyclo[3.1.1]heptan-4-yl]cyclopropanesulfonamide]	115
CC(=O)N1C2CC(F)(C2)[C@H](NS(C)(=O)=O)[C@@H]1Cc1cccc(-c2cccc(Cl)c2)c1F [Example 46, N-{(3S,4R)-2-Acetyl-3-[(3'-chloro-2-fluoro[biphenyl]-3-yl)methyl]-5-fluoro-2-azabicyclo[3.1.1]heptan-4-yl}methanesulfonamide]	106
C[C@@H](O)C(=O)N1C2CC(C2)[C@H](NS(C)(=O)=O)[C@@H]1Cc1cccc(-c2cccc(C(F)F)n2)c1F [Example 47, N-{(3S,4S)-3-{3-[6-(Difluoromethyl)pyridin-2-yl]-2-fluorobenzyl}-2-[(2R)-2-hydroxypropanoyl]-2-azabicyclo[3.1.1]heptan-4-yl}methanesulfonamide]	117
CO[C@H](C)C(=O)N1C2CC(C2)[C@H](NS(C)(=O)=O)[C@@H]1Cc1cccc(-c2cc(F)cc(F)c2)c1F [Example 48, N-{(3S,4S)-2-[(2R)-2-Methoxypropanoyl]-3-[(2,3',5'-trifluoro[biphenyl]-3-yl)methyl]-2-azabicyclo[3.1.1]heptan-4-yl}methanesulfonamide]	33
CC(C)(O)C(=O)N1C2CC(F)(C2)[C@H](NS(C)(=O)=O)[C@@H]1Cc1cccc(-c2cccc(C(F)F)c2)c1F [Example 49, N-[(3S,4R)-3-{[3'-(Difluoromethyl)-2-fluoro[biphenyl]-3-yl]methyl}-5-fluoro-2-(2-hydroxy-2-methylpropanoyl)-2-azabicyclo[3.1.1]heptan-4-yl]methanesulfonamide]	20
CC(C)(O)C(=O)N1C2CC(F)(C2)[C@H](NS(C)(=O)=O)[C@@H]1Cc1cccc(-c2ccccc2)c1F [Example 50, N-[(3S,4R)-5-Fluoro-3-[(2-fluoro[biphenyl]-3-yl)methyl]-2-(2-hydroxy-2-methylpropanoyl)-2-azabicyclo[3.1.1]heptan-4-yl]methanesulfonamide]	41
CC(C)(O)C(=O)N1C2CC(C2)[C@H](NS(C)(=O)=O)[C@@H]1Cc1cccc(-c2cc(F)cc(C(F)F)c2)c1F [Example 51, N-[(3S,4S)-3-{[3'-(Difluoromethyl)-2,5'-difluoro[biphenyl]-3-yl]methyl}-2-(2-hydroxy-2-methylpropanoyl)-2-azabicyclo[3.1.1]heptan-4-yl]methanesulfonamide]	33

— patent EP4635944A1, “2-AZABICYCLO[3.1.1]HEPTANE COMPOUND” (Daiichi Sankyo Company, Limited, priority 2022, dated 2024)
